Reference: the supplement of paper PMC10307832

Experiments:
Experiment in all cases: relative viability (nuclei count vs DMSO), 5 days (fraction); higher = more cells survive
[1] = compound: CN[C@@H]1C[C@H]2O[C@@](C)([C@@H]1OC)n1c3ccccc3c3c4c(c5c6ccccc6n2c5c31)C(=O)NC4 [Staurosporine] + CC(C)C[C@H](NC(=O)[C@H](Cc1ccccc1)NC(=O)c1cnccn1)B(O)O [Bortezomib] (partner 0.002 µM)
In short: (§1)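 Values are medians from duplicate plates. Each reflects relative viability, defined as the nuclei count of treated wells over that of vehicle wells. Lung cancer cell lines in 1536-well plates were pin-tool dosed one day after seeding with one drug alone or with a fixed anchor-drug dose plus five library-drug doses (not always all listed) in √10 steps, then fixed, stained and imaged at 4× after 5 days.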

[2] = compound: CC1=C(CC(=O)O)c2cc(F)ccc2/C1=C\c1ccc([S+](C)[O-])cc1 [Sulindac] + CS(=O)(=O)CCNCc1ccc(-c2ccc3ncnc(Nc4ccc(OCc5cccc(F)c5)c(Cl)c4)c3c2)o1 [Lapatinib] (partner 2 µM)
In short: as §1

[3] = compound: CC1=C(CC(=O)O)c2cc(F)ccc2/C1=C\c1ccc([S+](C)[O-])cc1 [Sulindac] + CC1(C)CCC(c2ccc(Cl)cc2)=C(CN2CCN(c3ccc(C(=O)NS(=O)(=O)c4ccc(N[C@H](CCN5CCOCC5)CSc5ccccc5)c(S(=O)(=O)C(F)(F)F)c4)cc3)CC2)C1 [Navitoclax] (partner 0.5 µM)
In short: as §1

[4] = compound: CN[C@@H]1C[C@H]2O[C@@](C)([C@@H]1OC)n1c3ccccc3c3c4c(c5c6ccccc6n2c5c31)C(=O)NC4 [Staurosporine] + C[C@]1(O)C[C@@H](c2nc(-c3ccc4ccc(-c5ccccc5)nc4c3)c3c(N)nccn32)C1 [Linsitinib] (partner 1 µM)
In short: as §1

HARA showed a relative viability ([1]; first compound 0.005 µM) of 0.996, a relative viability ([1]; first compound 0.01581 µM) of 0.351 and a relative viability ([1]; first compound 0.05 µM) of 0.233. It also gave a relative viability ([1]; first compound 0.1581 µM) of 0.115, a relative viability ([1]; first compound 0.5 µM) of 0.179 and a relative viability ([2]; first compound 0.08 µM) of 0.989. For the same cell line, the relative viability ([2]; first compound 0.253 µM) was 0.835, the relative viability ([2]; first compound 2.53 µM) was 0.858 and the relative viability ([2]; first compound 8 µM) was 0.893. For the same cell line, the relative viability ([3]; first compound 0.08 µM) was 1.21, the relative viability ([3]; first compound 0.253 µM) was 1.24 and the relative viability ([3]; first compound 2.53 µM) was 1.18. The relative viability ([3]; first compound 8 µM) was 1.14, the relative viability ([4]; first compound 0.005 µM) was 0.762 and the relative viability ([4]; first compound 0.01581 µM) was 0.192. For the same cell line, the relative viability ([4]; first compound 0.05 µM) was 0.155, the relative viability ([4]; first compound 0.1581 µM) was 0.0968 and the relative viability ([4]; first compound 0.5 µM) was 0.0872.

NCI-H2405 showed a relative viability ([1]; first compound 0.005 µM) of 0.314, a relative viability ([1]; first compound 0.01581 µM) of 0.165 and a relative viability ([1]; first compound 0.05 µM) of 0.188. It also gave a relative viability ([1]; first compound 0.1581 µM) of 0.163, a relative viability ([1]; first compound 0.5 µM) of 0.134 and a relative viability ([2]; first compound 0.08 µM) of 1.24. It also gave a relative viability ([2]; first compound 0.253 µM) of 1.11, a relative viability ([2]; first compound 0.8 µM) of 0.969 and a relative viability ([2]; first compound 2.53 µM) of 1.02. The relative viability ([2]; first compound 8 µM) was 1.39, the relative viability ([3]; first compound 0.08 µM) was 0.934 and the relative viability ([3]; first compound 0.253 µM) was 0.9. The relative viability ([3]; first compound 0.8 µM) was 0.783, the relative viability ([3]; first compound 2.53 µM) was 0.859 and the relative viability ([3]; first compound 8 µM) was 1.11. It also gave a relative viability ([4]; first compound 0.005 µM) of 0.214, a relative viability ([4]; first compound 0.01581 µM) of 0.127 and a relative viability ([4]; first compound 0.05 µM) of 0.113. The relative viability ([4]; first compound 0.1581 µM) was 0.0901 and the relative viability ([4]; first compound 0.5 µM) was 0.0874.

201T was tested, and the relative viability ([1]; first compound 0.005 µM) was 1.13, the relative viability ([1]; first compound 0.01581 µM) was 1.1 and the relative viability ([1]; first compound 0.05 µM) was 1.04. It also gave a relative viability ([1]; first compound 0.1581 µM) of 0.911, a relative viability ([1]; first compound 0.5 µM) of 0.747 and a relative viability ([2]; first compound 0.08 µM) of 1.05. For the same cell line, the relative viability ([2]; first compound 0.253 µM) was 0.974, the relative viability ([2]; first compound 0.8 µM) was 1.04 and the relative viability ([2]; first compound 2.53 µM) was 0.997. It also gave a relative viability ([2]; first compound 8 µM) of 1.07, a relative viability ([3]; first compound 0.08 µM) of 1.19 and a relative viability ([3]; first compound 0.253 µM) of 1.15. For the same cell line, the relative viability ([3]; first compound 0.8 µM) was 1.27, the relative viability ([3]; first compound 2.53 µM) was 1.16 and the relative viability ([3]; first compound 8 µM) was 1.23. It also gave a relative viability ([4]; first compound 0.005 µM) of 1.02, a relative viability ([4]; first compound 0.01581 µM) of 1 and a relative viability ([4]; first compound 0.05 µM) of 0.814. It also gave a relative viability ([4]; first compound 0.1581 µM) of 0.688 and a relative viability ([4]; first compound 0.5 µM) of 0.575.
